Reference: US12410187B2, “Fused tricyclic compounds useful as anticancer agents” (ASTRAZENECA AB, priority 2019, dated 2025)
pIC50: −log10 of the molar value. Like-named read-outs stand apart in the source and are kept apart here.

Tests used:
KRasG12C = target: T1, KRasG12C (Homo sapiens, UniProt P01116, G12C); experiment: KRasG12C functional assay (HTRF/FRET nucleotide exchange and Raf RBD binding); assay type: biochemical; details: samples incubated for 4 hrs, FRET readout, single experiment or average of two or more
T1 construct: biotin (biotinylated); made in house
T1 sequence (P01116 1-188 isoform P01116-2 G12C): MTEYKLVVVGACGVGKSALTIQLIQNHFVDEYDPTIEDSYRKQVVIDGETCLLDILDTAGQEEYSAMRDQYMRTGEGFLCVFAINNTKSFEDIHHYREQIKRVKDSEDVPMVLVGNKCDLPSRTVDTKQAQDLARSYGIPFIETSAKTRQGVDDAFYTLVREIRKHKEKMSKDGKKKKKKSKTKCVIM
Protocol: All enzyme and substrate solutions were prepared in assay buffer containing 20 mM HEPES (pH 7.5), 5 mM MgCl2, 150 mM NaCl, and 0.01% Tween 20. […] In a separate mix 20 nM GST-Raf Ras binding domain (GST-Raf RBD, purified in house) and 4 μg/ml anti-GST XL665 antibody (Cisbio) was prepared in assay buffer containing 50 mM Potassium Fluoride and 0.05 mg/ml BSA and equilibrated for 4 hours before adding 0.6 μM Guanosine 5′-[γ-thio]triphosphate (GTPγS, Sigma) and 0.08 μM SOS (purified in house). 5 μl of the GST-RAF RBD mix was then dispensed into each well of the assay plate. […] This is detected simultaneously via the specific binding interaction between active GTPγS KRas^G12C with GST-Raf RBD which brings the europium and XL665 into close proximity enabling an increased FRET signal to be detected on a Pherastar (BMG) plate reader equipped with the HTRF filter module. […] IC50 values were calculated from normalised dose-response response FRET data curve fitted in Genedata screener (Basel, Switzerland).

MDR1 (Pgp) and BCRP = experiment: Blood brain barrier penetrant assessment: efflux ratio in MDCK_MDR1_BCRP cells; assay type: in vitro ADME; details: human, MDCK cells doubly transfected with MDR1 (Pgp) and BCRP, ratio of 2 or less = potential for good BBB penetration, read-out: Hu MDCK-MDR1-BCRP (0.1 uM) Mean Efflux Ratio
Protocol: In order to evaluate blood brain barrier (BBB) penetrant properties the efflux properties of compounds according to the specification was measured in cells transfected with the major efflux pumps expressed in the endothelial cells of the BBB. The assessment of efflux properties was performed using Madin-Darby Canine Kidney (MDCK) cells doubly transfected with MDR1 (Pgp) and BCRP. The transfected cell line, MDCK_MDR1_BCRP, thus expresses the two main efflux pumps that actively serve to exclude transit of compounds across the BBB and the efflux ration from these cell can be measured as described in the literature (Durant et al, Sci. Adv. 2018; eeat:1719). A compound that has an efflux ratio of 2 or less as measured by this technique is identified as having the potential for good BBB penetrant properties (Colclough et al, Drug Disc. Today 2019; 24(5), 1067-73).

[1] = GDP loaded biotinylated KRasG12C, read-out: KRasG12C functional assay IC50
[2] = KRasG12C functional assay IC50, GDP loaded biotinylated KRasG12C

SMILES	pIC50 (KRasG12C; [1])	efflux ratio at 0.1 uM (MDR1 (Pgp) and BCRP)	pIC50 (KRasG12C; [2])
C=CC(=O)N1CCN2Cc3cc(Cl)c(-c4c(O)cccc4F)c(Cl)c3OC[C@H]2C1 (single isomer, unassigned) [Example 27]	7.62	0.8	
C=CC(=O)N1CCN2Cc3cc(C#CC)c(-c4c(O)cccc4Cl)c(Cl)c3OC[C@H]2C1 (single isomer, unassigned) [Example 109]	7.85	0.9	
C=CC(=O)N1CCN2Cc3cc(Cl)c(-c4c(O)cccc4Cl)c(F)c3OC[C@H]2C1 (single isomer, unassigned) [Example 84]		0.6	7.60
C=CC(=O)N1CCN2Cc3c(F)c(F)c(-c4c(O)cccc4Cl)c(Cl)c3OC[C@H]2C1 (single isomer, unassigned) [Example 92]	7.28	0.7	
[2H]C([2H])([2H])Oc1nc2c(c(Cl)c1-c1c(O)cccc1Cl)OC[C@H]1CN(C(=O)C=C)CCN1C2 (single isomer, unassigned) [Example 112]	7.36	1.5	
C#Cc1cc2c(c(Cl)c1-c1c(O)cccc1Cl)OC[C@H]1CN(C(=O)C=C)CCN1C2 [Example 78, 1-[(12aR)-10-Chloro-9-(2-chloro-6-hydroxyphenyl)-8-ethynyl-3,4,12,12a-tetrahydro-6H-pyrazino[2,1-c][1,4]benzoxazepin-2(1H)-yl]prop-2-en-1-one]	7.71	0.7	
C=CC(=O)N1CCN2C(=O)c3cc(F)c(-c4c(O)cccc4F)c(Cl)c3OC[C@H]2C1 (single isomer, unassigned) [Example 11]	7.17	0.5	
C=CC(=O)N1CCN2C(=O)c3cc(Cl)c(-c4c(O)cccc4F)c(Cl)c3OC[C@H]2C1 (single isomer, unassigned) [Example 21]	4.89		
C=CC(=O)N1CCN2Cc3c(c(Cl)c(-c4c(O)cccc4Cl)c4ncn(C)c34)OC[C@H]2C1 (single isomer, unassigned) [Example 82]	7.21		
C=CC(=O)N1CCN2C(=O)c3cc(Cl)c(-c4c(O)cccc4F)c(Cl)c3OC[C@H]2C1 (single isomer, unassigned) [Example 20]	7.37		
C=CC(=O)N1CCN2Cc3cc(F)c(-c4c(O)cccc4Cl)c(Cl)c3OC[C@H]2C1 (single isomer, unassigned) [Example 35]	7.38	1.8	
C#Cc1cc2c(c(Cl)c1-c1c(O)cccc1F)OC[C@H]1CN(C(=O)C=C)CCN1C2 (single isomer, unassigned) [Example 80]	7.08	0.7	
C=CC(=O)N1CCN2Cc3cc(F)c(-c4c(O)cccc4Br)c(F)c3OC[C@H]2C1 (single isomer, unassigned) [Example 58]	4.93		
C#Cc1cc2c(c(F)c1-c1c(O)cccc1Cl)OC[C@H]1CN(C(=O)C=C)CCN1C2 (single isomer, unassigned) [Example 77]			6.03
C=CC(=O)N1CCN2C(=O)c3ccc(-c4c(C)ccc5[nH]ncc45)c(Cl)c3OC[C@@H]2C1 (single isomer, unassigned) [Example 1]			4.14
C=CC(=O)N1CCN2Cc3cc(C#N)c(-c4c(C)cccc4O)c(Cl)c3OC[C@H]2C1 (single isomer, unassigned) [Example 41]	6.74		
C=CC(=O)N1CCN2C(=O)c3cc(C)c(-c4c(O)cccc4F)c(Cl)c3OC[C@H]2C1 (single isomer, unassigned) [Example 24]	4.36		
C#Cc1nc2c(c(Cl)c1-c1c(O)cccc1Cl)OC[C@@H]1CN(C(=O)C=C)CCN1C2 (single isomer, unassigned) [Example 88]	7.89		
C#Cc1c(F)c2c(c(F)c1-c1c(O)cccc1Cl)OC[C@H]1CN(C(=O)C=C)CCN1C2 (single isomer, unassigned) [Example 95]	7.72	0.9	
C=CC(=O)N1CCN2Cc3cc(C#CC)c(-c4c(O)cccc4Cl)c(F)c3OC[C@H]2C1 (single isomer, unassigned) [Example 86]		0.9	7.82
C=CC(=O)N1CCN2Cc3cc(F)c(-c4c(O)cccc4C(F)F)c(F)c3OC[C@H]2C1 (single isomer, unassigned) [Example 52]	< 4.00		
C=CC(=O)N1CCN2Cc3cc(F)c(-c4c(C)cccc4O)c(F)c3OC[C@H]2C1 (single isomer, unassigned) [Example 44]			< 4.00

SMILES	pIC50 (KRasG12C; [1])	efflux ratio at 0.1 uM (MDR1 (Pgp) and BCRP)	pIC50 (KRasG12C; [2])
C=CC(=O)N1CCN2Cc3cc(Cl)c(-c4c(C)cccc4O)c(F)c3OC[C@H]2C1 (single isomer, unassigned) [Example 61]	7.56	0.3	
C#Cc1cc2c(c(C)c1-c1c(O)cccc1Cl)OC[C@H]1CN(C(=O)C=C)CCN1C2 (single isomer, unassigned) [Example 90]	7.27	0.6	
C=CC(=O)N1CCN2Cc3cc(F)c(-c4c(O)ccc(F)c4F)c(Cl)c3OC[C@H]2C1 (single isomer, unassigned) [Example 38]	4.40		
C=CC(=O)N1CCN2Cc3cc(F)c(-c4c(O)cccc4C(F)F)c(F)c3OC[C@H]2C1 (single isomer, unassigned) [Example 53]	6.18	1.5	
C=CC(=O)N1CCN2Cc3c(O)c(Cl)c(-c4c(O)cccc4F)c(Cl)c3OC[C@H]2C1 (single isomer, unassigned) [Example 13]	7.18		
C=CC(=O)N1CCN2Cc3c(C#CC)nc(-c4c(O)cccc4Cl)c(Cl)c3OC[C@H]2C1 (single isomer, unassigned) [Example 118]	7.52		
C=CC(=O)N1CCN2Cc3cc(F)c(-c4c(F)cccc4CO)c(F)c3OC[C@H]2C1 (single isomer, unassigned) [Example 47]	5.76		
C=CC(=O)N1CCN2Cc3c(-n4cccn4)cc(-c4c(O)cccc4F)c(Cl)c3OC[C@H]2C1 [Example 17, 1-[(12aR)-10-Chloro-9-(2-fluoro-6-hydroxyphenyl)-7-(1H-pyrazol-1-yl)-3,4,12,12a-tetrahydro-6H-pyrazino[2,1-c][1,4]benzoxazepin-2(1H)-yl]prop-2-en-1-one]	6.44		
C=CC(=O)N1CCN2Cc3cc(F)c(-c4c(C)ccc5[nH]cnc45)c(Cl)c3OC[C@H]2C1 (single isomer, unassigned) [Example 19]	6.84		
C=CC(=O)N1CCN2Cc3cc(C#N)c(-c4c(O)cccc4Cl)c(Cl)c3OC[C@H]2C1 (single isomer, unassigned) [Example 56]	5.77		
C=CC(=O)N1CCN2Cc3cc(F)c(-c4c(F)cccc4CO)c(F)c3OC[C@H]2C1 (single isomer, unassigned) [Example 46]	4.00		
C=CC(=O)N1CCN2Cc3cc(C#N)c(-c4c(O)cccc4Cl)c(Cl)c3OC[C@H]2C1 (single isomer, unassigned) [Example 57]	7.51		
C=CC(=O)N1CCN2Cc3cc(F)c(-c4c(O)cccc4Cl)c(Cl)c3OC[C@H]2C1 (single isomer, unassigned) [Example 34]	4.19		
C=CC(=O)N1CCN2Cc3cc(F)c(-c4c(O)cccc4C(F)(F)F)c(F)c3OC[C@H]2C1 (single isomer, unassigned) [Example 48]	4.37		
C=CC(=O)N1CCN2C(=O)c3ccc(-c4c(C)ccc5[nH]ncc45)c(Cl)c3OC[C@@H]2C1 (single isomer, unassigned) [Example 2]			5.35
C=CC(=O)N1CCN2C(=O)c3ccc(-c4c(C)ccc5[nH]ncc45)c(Cl)c3NC[C@H]2C1 (single isomer, unassigned) [Example 32]	4.19		
C=CC(=O)N1CCN2Cc3c(c(Cl)c(-c4c(O)cccc4F)n(C)c3=O)OC[C@H]2C1 (single isomer, unassigned) [Example 66]	4.68		
C=CC(=O)N1CCN2Cc3cc(OCCOC)c(-c4c(O)cccc4Cl)c(Cl)c3OC[C@H]2C1 (single isomer, unassigned) [Example 106]	7.37		
C=CC(=O)N1CCN2Cc3c(O)c(Cl)c(-c4c(O)cccc4F)c(Cl)c3OC[C@H]2C1 (single isomer, unassigned) [Example 14]	5.09		
C=CC(=O)N1CCN2Cc3cc(OC4CC4)c(-c4c(O)cccc4Cl)c(F)c3OC[C@H]2C1 (single isomer, unassigned) [Example 100]			7.10
C=CC(=O)N1CCN2Cc3ccc(-c4c(C)ccc5[nH]ncc45)c(Cl)c3OC[C@H]2C1 (single isomer, unassigned) [Example 9]			4.59
C=CC(=O)N1CCN2Cc3c(c(Cl)c(-c4c(O)cccc4F)n(C)c3=O)OC[C@H]2C1 (single isomer, unassigned) [Example 67]	6.09		
